Values joined by “and” are separate entries in the source; they are usually repeats but may differ in a detail not shown here. Equal values may be shown once.
Legend:
Type in all cases: in vivo, humans
[1] = Change in body weight after 10 weeks of training; conditions: placebo group remained the same
Method: (§1) The study subjects were healthy males, ages 18 to 40, with previous weight training experience. […] Pages 111-112.
(§2) The duration of the study was 10 weeks and included a supplementation regime of D-Ribose or D-Glucose as placebo control, combined with resistance weight training. The subjects were divided into two matched groups, four subjects received D-Ribose and two subjects received placebo.
(§3) Baseline testing was conducted before training and supplementation. Prior to any testing the subjects were required to read and sign an informed consent document. Subject information to be collected prior to the start of the exercise regimen included age, height, weight, body composition and performance measures. The body composition was determined by hydrostatic weighing and skinfold measurements to determine beginning percentage muscle mass and percentage body fat.
(§4) There were four training sessions per week. At each training session, the subject was accompanied by a supervisor to ensure proper lifting technique, safety and efficiency of the training session. D-Ribose or placebo at a dose of 5 gm was taken one-half hour before and one-half after the training session. On the three days per week when the subjects were not trained, the subjects were allowed to consume the supplement at their convenience. […]

[2] = Underwater weight test (hydrostatic weighing), % body fat, before and after 10 weeks of weight training with supplementation
Method: as §1, §2, §3
(§5) There were four training sessions per week. At each training session, the subject was accompanied by a supervisor to ensure proper lifting technique, safety and efficiency of the training session. D-Ribose or placebo at a dose of 5 gm was taken one-half hour before and one-half after the training session. On the three days per week when the subjects were not trained, the subjects were allowed to consume the supplement at their convenience. Dietary recalls were also kept on Tuesday, Wednesday and Thursday of each week, but not dietary requirements were imposed.
(§6) The lifting sessions were designed to exercise mainly the largest muscles of the body, that is, arm, leg, abdominals and back. All lifting sessions were preceded by warm-up sets of 20 repetitions at low weights. After week 4, the weight to be lifted was increased when the subject was able to do the maximum number of reps for all three sets. There was a 2-minute rest between each set and a 5 minute rest between each exercise. The lifting sessions were as follows:
(§7) Following the training period of 10 weeks, the subjects were tested as for the pre-testing procedure. […]

[3] = Skinfold test, % body fat, before and after 10 weeks of weight training with supplementation
Method: as §1, §2, §3, §5, §6, §7

[4] = Performance measures: maximum weight lifted once (1RM), bench press and squat, after 10 weeks of training
From the text: as §1, §2
Initial performance measures were individualized to each subject. The maximum weight each subject could lift once (1RM) was determined for the bench press and the squat lift. The maximal repetitions that each subject was able to lift of their own body weight was determined. Each subject performed as many repetitions as possible, followed by a one-minute rest and then repeated. The sets were continued until no weight could be lifted, limited by a maximum of 10 sets.
as §4

[5] = group average of four subjects, post compared to pre-training
[6] = individual subjects, after 10 weeks of weight training, 5 gm before and after each session
[7] = individual subjects, post training compared to pre-training
[8] = individual subjects, pre-training baseline

O=C[C@H](O)[C@H](O)[C@H](O)CO [Ribose, D-Ribose]
Average increase in body weight [1]: 3.4 pounds | Underwater Weight Test, % body fat, Difference, Average [2, 5]: −1.3% | Underwater Weight Test, % body fat, Post [2, 6]: 18.5% and 23.6% and 12.5% and 27.8% | Underwater Weight Test, % body fat, Difference [2, 7]: +0.8% and −1.1% and −5.0% and −21.9% | Underwater Weight Test, % body fat, Pre [2, 8]: 17.7% and 22.5% and 17.5% and 29.7% | Decrease in total body fat (underwater weight test) compared with placebo ([2]; ten week period, in words): greater decrease in body fat | Skinfold Test, % Body Fat, Difference, Average [3, 5]: −3.1% | Skinfold Test, % Body Fat, Post [3, 6]: 26.2% and 14.2% and 18.0% and 11.5% | Skinfold Test, % Body Fat, Difference [3, 7]: −2.8% and −2.4% and −3.7% and −3.3% | Skinfold Test, % Body Fat, Pre [3, 8]: 29.0% and 16.6% and 21.7% and 14.8% | Decrease in subcutaneous body fat (skinfold test) compared with placebo ([3]; ten week period, in words): greater decrease in body fat | Increase in 1 RM Squat re-test ([4]; placebo group 12 pounds): 45.5 pounds | Increase in weight lifted once in the bench press (1RM) ([4]; placebo group improved by 10 pounds): 10.5 pounds

— patent US6525027B2, “Use of ribose supplementation for increasing muscle mass and decreasing body fat in humans” (Bioenergy Inc., priority 2000, dated 2003)
